Read-outs that look alike come from different tables or passages of the source. No end group written: not given here.
Key:
Assay in all cases: biochemical
Type in all cases: binding
HLA-DR DRB1*1501 (DR15) = HLA-DR DRB1*1501 (DR15) (Homo sapiens, UniProt P01903+P01911); settings: DRBI *1501
HLA-DR DRB1*0701 (DR7) = HLA-DR DRB1*0701 (DR7) (Homo sapiens, UniProt P01903+P01911, A100R/A102G/A103Q/D57E/D86V/E43K/F76Y/K127E/L162R/M171V/P40G/Q125H/Q99D/R33Q/R42Y/R54Q/S133A/S66F/T210M/V115G/Y107V/Y59L/Y89S)
HLA-DR DRB1*0405 (DR4) = HLA-DR DRB1*0405 (DR4) (Homo sapiens, UniProt P01903+P01911, A100R/A169T/D86S/F76Y/I96L/K127E/L162R/M171V/N62H/P40V/Q125Y/R42H/S133A/S149N/S66Y/V115G/V209L/W38E)
HLA-DR DRB1*1302 (DR13) = HLA-DR DRB1*1302 (DR13) (Homo sapiens, UniProt P01903+P01911, A100E/A169T/K41T/L162R/M171V/P40S/Q125H/Q178H/Q39Y/Q99D/R42S/S66N/T262R/V115G/W38E/Y61H); settings: DRBI *1302
HLA-DR DRB1*1101 (DR11) = HLA-DR DRB1*1101 (DR11) (Homo sapiens, UniProt P01903+P01911, A100R/A169T/A87E/I96F/K41T/L162R/M171V/P40S/Q125H/Q178H/Q39Y/Q99D/R42S/S66Y/T262R/V115G/W38E); settings: DRB1 *1101
HLA-DR DRB4*0101 (DR53) = HLA-DR DRB4*0101 (DR53) (Homo sapiens, UniProt P01903+P13762, G164S); settings: DRB4 *0101
HLA-DR DRB5*0101 (DR51) = HLA-DR DRB5*0101 (DR51) (Homo sapiens, UniProt P01903+Q30154); settings: DRB5 *0101
HLA-DR DRB1*0901 (DR9) = HLA-DR DRB1*0901 (DR9) (Homo sapiens, UniProt P01903+P01911, A100R/A103E/D57H/D86V/F55Y/F60I/F76Y/I96F/K127E/L162R/M171V/P40D/Q125H/Q99R/R33Q/R42F/S133A/S66N/T210M/V115G/W38K/Y107V/Y59G/Y89S)
HLA-DR DRB1*0101 (DR1) = HLA-DR DRB1*0101 (DR1) (Homo sapiens, UniProt P01903+P01911, A100R/D57E/F55L/F60I/F76Y/I96L/L162R/M171V/P40L/Q125E/R42F/V115G/Y59C)
HLA-DR DRB1*0401 (DR4) = HLA-DR DRB1*0401 (DR4) (Homo sapiens, UniProt P01903+P01911, A100K/A169T/F76Y/I96L/K127E/L162R/M171V/N62H/P40V/Q125Y/R42H/S133A/S149N/S66Y/V115G/V209L/W38E)
HLA-DR DRB1*0301 (DR3) = HLA-DR DRB1*0301 (DR3) (Homo sapiens, UniProt P01903+P01911, A100K/A102G/A103R/A169T/F55Y/I96L/K41T/L162R/M171V/P40S/Q125H/Q178H/Q39Y/R42S/S66N/T106N/T262R/W38E/Y61H)
Sequence of HLA-DR DRB1*0301 (DR3) (P01903 26-254 limits assumed, other chains not shown): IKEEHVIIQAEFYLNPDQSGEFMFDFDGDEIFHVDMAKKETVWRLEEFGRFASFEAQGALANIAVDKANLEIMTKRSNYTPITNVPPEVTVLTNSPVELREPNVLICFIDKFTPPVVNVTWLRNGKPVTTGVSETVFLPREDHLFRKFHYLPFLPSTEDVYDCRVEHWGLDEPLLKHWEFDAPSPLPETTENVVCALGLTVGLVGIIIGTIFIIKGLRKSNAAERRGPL

Sequence of HLA-DR DRB1*1302 (DR13) (P01903 26-254 limits assumed, other chains not shown): as above
Sequence of HLA-DR DRB1*1101 (DR11) (P01903 26-254 limits assumed, other chains not shown): as above

Row | Molecule | IC50 (HLA-DR DRB1*1501 (DR15)) | IC50 (HLA-DR DRB1*0701 (DR7); DRB1 *0701) | IC50 (HLA-DR DRB1*0405 (DR4); DRB1 *0405) | IC50 (HLA-DR DRB1*1302 (DR13)) | IC50 (HLA-DR DRB1*1101 (DR11)) | IC50 (HLA-DR DRB4*0101 (DR53)) | IC50 (HLA-DR DRB5*0101 (DR51)) | IC50 (HLA-DR DRB1*0901 (DR9); DRB1 *0901) | IC50 (HLA-DR DRB1*0101 (DR1); DRB1 *0101) | IC50 (HLA-DR DRB1*0401 (DR4); DRB1 *0401) | IC50 (HLA-DR DRB1*0301 (DR3)) | IC50 (HLA-DR DRB1*0701 (DR7); read-out: DRB1 *0701) | IC50 (HLA-DR DRB1*0405 (DR4); read-out: DRB1 *0405) | IC50 (HLA-DR DRB1*0401 (DR4); read-out: DRB1 *0401) | IC50 (HLA-DR DRB1*0101 (DR1); read-out: DRB1 *0101) | IC50 (HLA-DR DRB1*0301 (DR3); read-out: DRB1 *0301) | IC50 (HLA-DR DRB1*0901 (DR9); read-out: DRB1 *0901)
1 | CSCC[C@H](NC(=O)[C@H](Cc1ccc(O)cc1)NC(=O)[C@H](CCC(=O)O)NC(=O)[C@@H](N)Cc1c[nH]cn1)C(=O)N[C@@H](CC(C)C)C(=O)N[C@@H](CC(=O)O)C(=O)N[C@@H](CC(C)C)C(=O)N[C@@H](CCC(N)=O)C(=O)N1CCC[C@H]1C(=O)N[C@@H](CCC(=O)O)C(=O)N[C@H](C(=O)N[C@H](C(=O)N[C@@H](CC(=O)O)C(=O)N[C@@H](CC(C)C)C(=O)N[C@@H](Cc1ccc(O)cc1)C(=O)O)[C@@H](C)O)[C@@H](C)O | 30900 nM | > 18600 nM | 2290 nM | 13000 nM | > 56200 nM | 2100 nM | > 22900 nM | 21300 nM |  |  |  |  |  |  |  |  | 
2 | CC[C@H](C)[C@H](NC(=O)[C@H](CO)NC(=O)[C@H](CC(=O)O)NC(=O)[C@H](CCCNC(=N)N)NC(=O)[C@H](Cc1ccc(O)cc1)NC(=O)[C@@H](NC(=O)[C@@H](NC(=O)[C@H](Cc1ccccc1)NC(=O)[C@@H](N)CC(C)C)C(C)C)C(C)C)C(=O)N1CCC[C@H]1C(=O)N[C@@H](Cc1c[nH]cn1)C(=O)N[C@@H](C)C(=O)N[C@@H](C)C(=O)N[C@@H](CS)C(=O)N[C@@H](Cc1c[nH]cn1)C(=O)O | 437 nM | 2000 nM | 690 nM | 697 nM | 1580 nM | 3580 nM | 7850 nM |  | 131 nM | 3 nM | 62 nM |  |  |  |  |  | 
3 | CC(C)C[C@H](NC(=O)[C@H](CCC(N)=O)NC(=O)[C@H](CCC(N)=O)NC(=O)[C@H](CC(C)C)NC(=O)[C@@H](NC(=O)[C@H](CCCNC(=N)N)NC(=O)[C@@H](N)CC(C)C)[C@@H](C)O)C(=O)N[C@@H](Cc1ccccc1)C(=O)N[C@@H](CC(C)C)C(=O)N[C@@H](CO)C(=O)N[C@H](C(=O)N[C@@H](CC(C)C)C(=O)N[C@@H](CO)C(=O)N[C@@H](Cc1ccccc1)C(=O)N[C@H](C(=O)O)C(C)C)[C@@H](C)O | 29 nM | 60 nM | 9 nM | 55 nM | 208 nM | 3.1 nM | 1990 nM |  | 8.3 nM | 18 nM | 801 nM |  |  |  |  |  | 
4 | CC[C@H](C)[C@H](NC(=O)[C@@H](N)Cc1c[nH]c2ccccc12)C(=O)N[C@H](C(=O)N[C@@H](CCC(N)=O)C(=O)N[C@@H](CS)C(=O)N[C@@H](Cc1ccccc1)C(=O)N[C@@H](CC(C)C)C(=O)N1CCC[C@H]1C(=O)N[C@H](C(=O)N[C@@H](Cc1ccccc1)C(=O)N[C@@H](CC(C)C)C(=O)N[C@@H](C)C(=O)N[C@@H](CCC(N)=O)C(=O)N1CCC[C@H]1C(=O)N1CCC[C@H]1C(=O)N[C@@H](CO)C(=O)NCC(=O)N[C@@H](CCC(N)=O)C(=O)N[C@@H](CCCNC(=N)N)C(=O)N[C@@H](CCCNC(=N)N)C(=O)O)C(C)C)[C@@H](C)O |  | 74200 nM | 216 nM |  |  |  |  |  | 679 nM | 88 nM | 25500 nM |  |  |  |  |  | 
5 | CKFVVQLDIQSTKED [CKFVVQLDIQSTKED] | 22900 nM | 4550 nM | 374 nM | > 11400 nM | > 31600 nM | 301 nM | > 31400 nM | 19300 nM |  |  |  |  |  |  |  |  | 
6 | DLFVVYRDSIPHAAC | 2830 nM | 5210 nM | 3590 nM | 11200 nM |  | 2680 nM | 10700 nM | 2370 nM |  | 82 nM |  |  |  |  |  |  | 
7 | EFAFKDLFVVYRDS |  |  |  |  |  |  |  |  |  |  |  | 3690 nM | 33 nM | 2220 nM |  |  | 
8 | HQAISPRTLNGPGPGSPAIF | 5570 nM | 5080 nM | 3110 nM | 638 nM | 9870 nM | 232 nM | 32900 nM |  | 1550 nM |  | 728000 nM |  |  |  |  |  | 
9 | HYCYSLYGTTLEQQY | 4850 nM | 9860 nM | 76 nM | > 13700 nM |  |  | > 10700 nM |  | 546 nM |  |  |  |  |  |  |  | 
10 | IDGVNHQHLPARRAE | > 36800 nM | > 18600 nM | > 17000 nM | > 11500 nM | > 56200 nM |  | 12600 nM | > 39900 nM |  | 34300 nM |  |  |  |  |  |  | 
11 | IQQLLMGTVNIYCPT |  |  |  |  |  |  |  |  |  |  |  |  | 624 nM |  | 71 nM | 93700 nM | 
12 | KDYILDLQPETTDLH | > 37400 nM | > 72300 nM | 2770 nM | 23700 nM | > 17400 nM | 490 nM | > 55100 nM | > 49900 nM |  | 1020 nM |  |  |  |  |  |  | 
13 | KKPLNEILIRCIICQ |  |  |  |  |  |  |  |  |  |  |  | 7970 nM | 347 nM | 315 nM |  |  | 
14 | LRAFQQLFLNTLSFV | 20 nM | 75 nM | 8.3 nM | 1.01 nM |  | 2.2 nM |  |  | 1.5 nM | 7.4 nM | 648 nM |  |  |  |  |  | 
15 | LRIVYRDGNPFAVCK |  | 8990 nM | 557 nM | 123 nM | 109 nM | 1570 nM | 6820 nM |  |  | 16 nM |  |  |  |  |  |  | 
16 | NYSVYGNTLEQTVKK | 15600 nM | > 14600 nM | 822 nM | 8610 nM | > 56700 nM | > 25100 nM |  | 47500 nM | 14100 nM | 1930 nM |  |  |  |  |  |  | 
17 | QDVVLELTPQTEIDL | > 33100 nM |  | 53 nM |  | > 31600 nM | 1720 nM | > 31400 nM | 1680 nM |  | 83 nM |  |  |  |  |  |  | 
18 | RQDILDLWVYHTQGY | 723 nM | 1630 nM | 1140 nM | 6780 nM | > 51300 nM | 1330 nM | 16200 nM |  | 2390 nM | 1200 nM | 98300 nM |  |  |  |  |  | 
19 | RTAMFQDPQERPRKL | 73200 nM | 32900 nM | 7980 nM | 17100 nM |  | 20500 nM | 7470 nM | > 25300 nM | 9370 nM | 28200 nM |  |  |  |  |  |  | 
20 | TEVLDFAFTDLTIVY | 561 nM |  | 871 nM | > 13100 nM | > 18000 nM |  | > 62300 nM | 349 nM | 2070 nM |  |  |  |  |  |  |  | 
21 | VFEFAFKDLFVVYRD | 4870 nM |  | 120 nM | 7670 nM |  | 18100 nM | > 10700 nM | 16800 nM | 6720 nM |  |  |  |  |  |  |  | 
22 | VPTLQDVVLELTPQT |  | > 35400 nM | 5410 nM | 15000 nM | > 31600 nM | 1000 nM | > 31400 nM | > 30600 nM | 16100 nM | 214 nM |  |  |  |  |  |  | 
23 | VVQLDIQSTKEDLRV |  |  |  |  |  |  |  |  |  |  |  | 3760 nM | 46 nM | 11100 nM |  |  | 13900 nM
24 | YDFVFADLRIVYRNG |  |  |  |  |  |  |  |  |  |  |  | 21400 nM | 829 nM | 1910 nM |  | 13 nM | 
25 | YKFLFTDLRIVYRDN | 2910 nM | 1520 nM | 91 nM | 77 nM | 10100 nM | 1340 nM | 800 nM |  | 109 nM |  | 8.8 nM |  |  |  |  |  | 
26 | YLAMPFATPMEAELARRSLA | 865 nM |  | 405 nM | 2810 nM |  | 1960 nM | 641 nM |  | 46 nM | 266 nM | 46600 nM |  |  |  |  |  | 
27 | YYDYSVYGATLESIT | 1110 nM |  | 230 nM |  | 9120 nM | 32400 nM | > 51000 nM | 1400 nM | 1010 nM |  |  |  |  |  |  |  | 
